Measured values published in ChEMBL document CHEMBL3259532, “Elucidation of different inhibition mechanism of small chemicals on PtdInsP-binding domains using in silico docking experiments” (Bioorg Med Chem Lett, 2014).

What was measured:
[1] = molecular target: T1, Cytohesin-3 (Homo sapiens) (UniProt O43739); assay: Inhibition of C-terminal 6xHis-tagged Grp1 PH domain (unknown origin) expressed in Escherichia coli BL21(DE3) RIL assessed as inhibition of interaction with PtdIns(3,4,5)P3 at 500 uM after 15 mins by SPR analysis relative to control
T1 sequence (whole entry): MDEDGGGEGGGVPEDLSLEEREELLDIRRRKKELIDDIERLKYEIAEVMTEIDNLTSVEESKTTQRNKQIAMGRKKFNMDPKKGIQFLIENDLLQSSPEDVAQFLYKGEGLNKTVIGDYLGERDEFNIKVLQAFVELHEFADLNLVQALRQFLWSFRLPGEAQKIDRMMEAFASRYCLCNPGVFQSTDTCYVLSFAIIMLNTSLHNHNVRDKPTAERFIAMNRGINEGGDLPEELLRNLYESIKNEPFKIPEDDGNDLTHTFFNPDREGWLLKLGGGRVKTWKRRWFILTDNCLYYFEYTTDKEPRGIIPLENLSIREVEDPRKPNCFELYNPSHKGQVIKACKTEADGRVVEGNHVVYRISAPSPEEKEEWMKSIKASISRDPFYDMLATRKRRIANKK

Epsin-1 (Homo sapiens) = molecular target: T2, Epsin-1 (Homo sapiens) (UniProt Q9Y6I3); assay: Inhibition of C-terminal 6xHis-tagged epsin-1 ENTH domain (unknown origin) expressed in Escherichia coli BL21(DE3) RIL assessed as inhibition of interaction with PtdIns(4,5)P2 at 100 uM after 15 mins by SPR analysis relative to control
T2 sequence (whole entry): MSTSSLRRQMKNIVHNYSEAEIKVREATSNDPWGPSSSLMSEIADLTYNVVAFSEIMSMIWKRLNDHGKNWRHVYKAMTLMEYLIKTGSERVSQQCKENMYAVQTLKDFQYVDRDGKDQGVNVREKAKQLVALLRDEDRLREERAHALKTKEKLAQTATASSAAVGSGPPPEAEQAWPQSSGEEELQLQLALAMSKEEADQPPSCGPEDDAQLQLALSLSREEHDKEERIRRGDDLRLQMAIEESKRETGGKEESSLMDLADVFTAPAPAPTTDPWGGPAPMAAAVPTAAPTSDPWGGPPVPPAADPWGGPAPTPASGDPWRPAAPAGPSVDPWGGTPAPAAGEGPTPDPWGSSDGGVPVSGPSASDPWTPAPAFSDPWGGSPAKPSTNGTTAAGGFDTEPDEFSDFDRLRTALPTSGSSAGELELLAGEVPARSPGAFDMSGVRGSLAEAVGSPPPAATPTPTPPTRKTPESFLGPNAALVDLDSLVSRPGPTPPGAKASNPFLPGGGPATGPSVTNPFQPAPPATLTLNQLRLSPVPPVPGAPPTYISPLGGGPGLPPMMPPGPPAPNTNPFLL

Cytohesin-3 = molecular target: T3, Cytohesin-3 (Homo sapiens, UniProt O43739); assay: Inhibition of recombinant C-terminal 6xHis-tagged Grp1 PH domain (unknown origin) expressed in Escherichia coli BL21(DE3) RIL assessed as inhibition of interaction with PtdIns(3,4,5)P3 after 15 mins by SPR analysis
T3 sequence (O43739 whole entry): T1 sequence (whole entry)

SMILES | inhibition [1] [%] | inhibition (Epsin-1 (Homo sapiens)) [%] | IC50 (Cytohesin-3) [µM]
COP(=O)(O)C1=NNC(C)(C(=O)O)C1 (stereo unspecified) | 48 | 8.3 | –
O=C(O)c1cc(P(=O)(O)O)n[nH]1 | 77 | 61 | 38
CC1(C(=O)O)CC([PH](=O)O)=NN1 (stereo unspecified) | 63 | 8 | –
O=C1[C@@H]2C[C@@H]3CC[C@@]2(O3)[C@@H](P(=O)(O)O)N1Cc1ccccc1 | 0 | 13 | –
CCOP(=O)(O)c1cc(C(=O)O)[nH]n1 | 36 | 57 | –
